Values joined by “and” are separate entries in the source; they are usually repeats but may differ in a detail not shown here. Equal values may be shown once. Read-outs that look alike come from different tables or passages of the source.
Experiments:
[1] = biological target: T1, w.t. HIV-1 YU2 gp120 glycoprotein (Human immunodeficiency virus type 1 group M subtype B, UniProt P35961); test: biochemical; format: binding; settings: for Kd: w.t. gp120, ITC, 25° C.
T1 construct: (His)6 (C); made in house; host or cells: 293F cells

[2] = system: recombinant HIV with the w.t. HIVYU2 envelope glycoproteins; test: microbe, parasite or virus in culture; format: cell-based; settings: for IC50: w.t. YU2 envelope glycoproteins; for inhibition of HIV infection of cells expressing CD4 and CCR5 (in words): specificity versus A-MLV control
[3] = system: viruses with gp120 Glu 429 replaced with lysine; format: cell-based
[4] = system: recombinant HIV with the wild-type HIVYU2 envelope glycoproteins; format: cell-based; settings: w.t. YU2 envelope
[5] = system: viruses with the S375W envelope glycoproteins; format: cell-based; settings: Cf2Th-CCR5 cells
D368A mutant viruses = format: cell-based; settings: D368A envelope, CD4-CCR5+ target cells
[6] = system: viruses with gp120 Glu 429 replaced with alanine; format: cell-based
[7] = NBD-556 compared with NBD-557
[8] = system: viruses with HXBc2 or KB9 Env gps
Description: The envelope glycoproteins were derived from CCR5-using (R5) primary HIV isolates (YU2 and ADA), dual-tropic (R5×4) primary isolates (89.6 and KB9) and, as a control, the amphotropic murine leukemia virus (A-MLV).

HXBc2 gp120 = biological target: T2, HXBc2 gp120 (Human immunodeficiency virus type 1 group M subtype B, UniProt P04578); test: Compound binding assay with [3H]-NBD-556, HXBc2 gp120; design: species or system HIV
T2 construct: (His)6 (C); made in house; host or cells: 293F cells

[9] = system: viruses with the S375A change; format: cell-based; settings: S375A envelope, compared with w.t.
[10] = biological target: T3, HIV-1 YU2 gp120 glycoprotein D368A/S375A (Human immunodeficiency virus type 1 group M subtype B, UniProt P35961, D363A/S370A); test: biochemical; format: binding
T3 construct: (His)6 (C); made in house; host or cells: 293F cells

[11] = biological target: T4, HIV-1 YU2 gp120 glycoprotein V430A (Human immunodeficiency virus type 1 group M subtype B, UniProt P35961, V417A); test: biochemical; format: binding
T4 construct: (His)6 (C); made in house; host or cells: 293F cells

[12] = biological target: T5, HIV-1 YU2 gp120 glycoprotein D368A (Human immunodeficiency virus type 1 group M subtype B, UniProt P35961, D363A); test: biochemical; format: binding
T5 construct: (His)6 (C); made in house; host or cells: 293F cells

[13] = biological target: T6, HIV-1 YU2 gp120 glycoprotein S375A (Human immunodeficiency virus type 1 group M subtype B, UniProt P35961, S370A); test: biochemical; format: binding
T6 construct: (His)6 (C); made in house; host or cells: 293F cells

[14] = Human immunodeficiency virus 1, Cf2Th-CD4/CCR5, Cf2Th-CD4/CCR5 cells

CN1C(C)(C)CC(NC(=O)C(=O)Nc2ccc(Cl)c(F)c2)CC1(C)C [Compound III]
gp120 binding / affinity (in words) [1]: increases affinity for gp120
Kd [1]: 330 nM
IC50 [2, 14]: 75 µM
inhibition of HIV infection of cells expressing CD4 and CCR5 (in words) [2]: lowers the IC50, while maintaining specificity for HIV-1

CC1(C)CC(NC(=O)C(=O)Nc2ccc(Br)cc2)CC(C)(C)N1 [NBD-557]
activation of infection (in words) [3]: eliminated the activation of infection
gp120 binding / affinity (in words) [1]: comparably to NBD-556
enhancement of HIV infection of CD4-CCR5+ cells (in words) [4]: comparably to NBD-556
enhancement of infection (in words) [5]: did not activate the entry
enhancement of infectivity (in words) (D368A mutant viruses): not enhanced
virus activation (in words) [6]: significantly diminished

COC(=O)CCCn1cc(CN2C(C)(C)CC(NC(=O)C(=O)Nc3ccc(Cl)c(F)c3)CC2(C)C)nn1 [XVIII]
inhibition of HIV infection of cells expressing CD4 and CCR5 (in words) [2]: efficient and specific inhibition of HIV-1

NBD-556
activation of infection (in words) [3]: eliminated the activation of infection
solubility (in words) [7]: better solubility
infection of CD4-CXCR4+ cells (in words) [8]: did not enhance the entry
enhancement of infection (in words) [5]: not enhanced
IC50 ([2]; Cf2Th-CD4/CCR5 cells): > 100 µM and 100 µM
enhancement of infectivity (in words) (D368A mutant viruses): enhanced
direct binding of 3H-labeled compound (in words) (HXBc2 gp120): only moderately
enhancement of infection (in words) [9]: greater enhancement
virus activation (in words) [6]: less disruptive

CC1(C)CC(NC(=O)C(=O)Nc2ccc(Cl)c(F)c2)CC(C)(C)N1 [Compound II, N1-(4-Chloro-3-fluorophenyl)-N2-(2,2,6,6-tetramethylpiperidin-4-yl)oxalamide]
Kd [10]: 83 nM
activation of infection (in words) [3]: eliminated the activation of infection
Kd [11]: 1000 nM
gp120 binding / affinity (in words) [1]: highest affinity for gp120
gp120 binding / affinity (in words) ([1]; listed as compound II): better gp120 binding than NBD-556 or NBD-557
Kd [1]: 800 nM
enhancement of HIV infection of CD4-CCR5+ cells (in words) [4]: most potent stimulation of HIV infection
enhancement of HIV infection of CD4-CCR5+ cells (in words) ([4]; listed as compound II): only compound II activated HIV infection
Kd [12]: 720 nM
infection of CD4-CXCR4+ cells (in words) [8]: neither of these Env gps supported infection
enhancement of infection (in words) [5]: did not activate the entry
IC50 ([2]; Cf2Th-CD4/CCR5 cells): 54 µM
IC50 [2, 14]: 90 µM
inhibition of HIV infection of cells expressing CD4 and CCR5 (in words) [2]: specifically inhibited HIVYU2 infection
enhancement of infectivity (in words) (D368A mutant viruses): enhanced
Kd [13]: 140 nM
virus activation (in words) [6]: significantly diminished

CC1(C)CC(NC(=O)C(=O)Nc2ccc(Cl)c(F)c2)CC(C)(C)N1Cc1cn(CCCCCO)nn1 [XVI]
inhibition of HIV infection of cells expressing CD4 and CCR5 (in words) [2]: efficient and specific inhibition of HIV-1

CC1(C)CC(NC(=O)C(=O)Nc2ccc(Cl)c(F)c2)CC(C)(C)N1CCCO [XVII]
inhibition of HIV infection of cells expressing CD4 and CCR5 (in words) [2]: efficient and specific inhibition of HIV-1

CC1(C)CC(NC(=O)C(=O)Nc2ccc(Cl)c(Cl)c2)CC(C)(C)N1 [V]
gp120 binding / affinity (in words) [1]: better gp120 binding than NBD-556 or NBD-557

Reference: patent US9776963B2, “Small molecule CD4 mimetics and uses thereof” (priority 2008, dated 2017)
